The test system of data set [1] is normal human dermal fibroblasts. Kind of data set: Production of progerin in monolayer cultures of normal human dermal fibroblasts (ELISA). The class given is cell-based. The settings on record: for Progerin % DMSO / Progerin Average / Progerin, individual values / Progerin Difference (%): 96 hours; for Progerin Difference (%): vs DMSO; for neo synthesis of progerin: under the retained experimental conditions. The text has this: In order to study the influence of the compounds of the invention on the concentration of progerin in the cells, the assay method described by C. Verdy, J.-E. Branka and N. Mekideche in <<Quantitative assessment of lactate and progerine production in normal human cutaneous cells during normal ageing: effect of an alaria esculenta extract>>, Int. J. Cosmetic Science, 2011, 1-5, has been used.
(§1) The test system consists of monolayers of adult normal human dermal fibroblasts obtained by cultivating cells collected from a tummy tuck carried out on a person.
Insulin at 10 nM has been used as a reference product in this study. […]
(§2) The compound to be tested is solubilized in 1 mg/ml in DMSO, then diluted in the cells incubation medium, with a constant concentration of 0.1% (v/v) in DMSO.
Upon completion of the incubation period, on the one hand, the progerin has been quantified in the cellular lysates (obtained by ultrasonic action) through a sensitive and specific ELISA assay, and on the other hand, the proteins that are contained in the cellular lysates have been quantified by a spectrophotometric method (Bradford method—Bradford M. (1976) Anal. Biochem., 72, 248-254).
(§3) The statistical significance of the differences that have been observed between the <<Control>> and the <<reference product>> conditions, has been assessed through a Student test. The statistical significance of the differences that have been observed between the <<Check>> and the <<test products>> conditions, has been assessed through a one-way analysis of variance (One Way ANOVA) followed by a Holm-Sidak test (*:p<0.05).

Data set [2] has the same test system. Description: Production of type I pro-collagen in monolayer cultures of normal human dermal fibroblasts (E.I.A.). Format: cell-based. The settings on record: 48 hours; for Procollagen Difference (%): vs DMSO. As to the method:
as §1
The used reference activator is the Transforming Growth Factor β (TGF-β) at 1 ng/ml. […]
as §2
Upon completion of the incubation period, the type I pro-collagen contained in the fibroblasts incubation media has been quantified using a sensitive and specific E.I.A. kit.
Upon completion of the incubation period, the proteins contained in the cellular lysates have been quantified by a spectrophotometric method (Bradford method—Bradford M. (1976) Anal. Biochem., 72, 248-254).
as §3
The results are given in the form of μg of type I pro-collagen per mg of protein (average+/− the standard deviation, S.D.) and are reported in the following Table 5.

Data set [3] has the same test system. Description: Neo synthesis of elastin in monolayer cultures of normal human dermal fibroblasts. Format: cell-based. The settings on record: 10 ng/ml, 96 hours. As to the method:
as §1
The used reference activator is the ascorbic acid at 100 μg/ml.
The cells have been incubated for 96 hours in the absence (control) or in the presence of the reference product or of increasing concentrations of the active ingredient that is being tested (10 ng/ml; 100 ng/ml; 500 ng/ml).
as §2
Upon completion of the incubation period, the elastin contained in the incubation medium of the explants has been quantified by a spectrophotometric method.
Upon completion of the incubation period, the proteins contained in the cellular lysate have been quantified by a spectrophotometric method (Bradford method—Bradford M. (1976) Anal. Biochem., 72, 248-254).
The results are given in the form of μg of elastin per mg of protein (average+/− the standard deviation, S.D.).

Data set [4] can be described thus: ORAC (Oxygen Radical Absorbance Capacity) antioxidant activity. The settings on record: ORAC. The class given is biochemical. The text has this:
The ORAC (Oxygen Radical Absorbance Capacity) method, described in Cao, G., Alessio, H. M., Cutler, R. G. Free radical Biology & Medecine 1993, 14: 303-311<<Oxygen-Radical Absorbance Capacity assay for antioxydants>> and Benderitter, M., Vincent-Genid, L., Pouget, J. P., Voisin, P. Radiation Research 2003; 159 (4): 471-483 <<The cell membrane as a biosensor of oxydative stress induced by radiation exposure:multiparameter investigation>>, has been used for measuring the anti-oxidant capability of the compounds of the invention.
By convention, the ORAC antioxidant activity of any molecule is measured in comparison with a recognized reference which is an analog of vitamin E, the trolox (6-hydroxy-2,5,7,8-tetramethylchroman-2-carboxylic acid), the anti-oxidant capability of 1 μM (micro mole) of trolox corresponding to 1 ORAC unit.
The ORAC values are commonly reported in μmol TE/g (in micromole of Trolox Equivalent per gram of product to be tested).
Given these definitions, the trolox has an ORAC index of about 3995 units.
The ORAC values of the compounds 26 and 34 have been measured (average of 3 measurements).

The test system of data set [5] is explants of adipose tissues. Description: Slimming effect: glycerol released in culture medium of adipose tissue explants. Format: cell-based, human. The method, then:
The activity of the compounds of the invention on the adipocytes has been assessed. To do so, tests have been carried out on explants of adipose tissues that are kept alive according to the following experimental protocol. The products to be tested are introduced in the culture medium. After 9 days of treatment, the activity is assessed through an assay of the glycerol released in the culture medium. In order to be able to compare the potential activity of the molecules, caffeine (Sigma ref C-0750 batch 127F0396), which is known for its activity on the adipocytes (Studlar M. […] The explants are prepared from a tummy tuck ([…]-AB-40) carried out on a donor. 54 explants of tissues have been prepared and kept alive in a medium which is supplemented with penicillin/streptomycin antibiotics (Gibco ref 15140 batch 918578) at 37° C. and with 5% of CO2. The treatment has been carried out, on 3 explants, by incorporating 100 μl of the product (which is in turn at a 2% concentration in the adequate solvent, DMSO) in 2 ml of the culture medium on days J0, J2, J3, J5 and J7. Caffeine has been diluted to the desired concentration in the culture medium on these same days. The control explants have undergone no treatment. On J0, the 3 explants have been collected and frozen at -80° C. On J9, the remaining explants have been collected and preserved under the same conditions. The extraction of lipids from the culture medium has been carried out according to a tested procedure. The assay of the glycerol of the culture medium has been carried out using a glycerol assay kit (Megazyme, K-GROL) in the form of 96-well microplates and reading has been made at 340 nm with a Tecam Infinite M200 microplate reader associated to the Magellan software.

SMILES strings stand for the structures. “And” between values parts separate entries of the source, which are not always exact repeats. Equal values may be shown once. Marks after values point to notes of the source that are not given here.

In turn, `COc1cc(/C=C/C(=O)NCCc2ccc(O)cc2)cc(OC)c1OC(C)=O` [Compound 36, 4-acetoxy-3,5-dimethoxy-N-(4′-hydroxyphenylethyl)-cinnamamide] gave a melting point of 99 °C. In data set [1] (50 ng/ml), the “Progerin % DMSO” value came to 84.0%; the “Progerin Average” value is 932.6 ng/mg of protein; the “Progerin, individual values” was 1552.2 ng/mg of protein and 690.1 ng/mg of protein and 555.6 ng/mg of protein; the “Progerin Difference (%)” value is reported as −16.0%. In data set [1] (500 ng/ml), the “Progerin % DMSO” value worked out at 23.7%; the “Progerin Average” value was 263.6* ng/mg of protein; the “Progerin, individual values” is 249.8 ng/mg of protein and 288.8 ng/mg of protein and 252.1 ng/mg of protein; the “Progerin Difference (%)” value is −76.3%. For the same compound, in data set [1] (5000 ng/ml), the “Progerin % DMSO” value was found to be 18.8%; the “Progerin Average” value is reported as 208.2* ng/mg of protein; the “Progerin, individual values” is 215.8 ng/mg of protein and 200.8 ng/mg of protein and 207.9 ng/mg of protein; the “Progerin Difference (%)” value is listed as −81.2%. Further, the “neo synthesis of progerin” value in data set [1] was “significantly decrease”. Also, in data set [2] (50 ng/ml), the “Procollagen % DMSO” value is listed as 121.5%; the “Procollagen Average” value is 63.7* pg/mg of protein; the “Procollagen, individual values” was 68.1 pg/mg of protein and 57.8 pg/mg of protein and 65.3 pg/mg of protein; the “Procollagen Difference (%)” value stood at 21.5%. Also, in data set [2] (500 ng/ml), the “Procollagen % DMSO” value is listed as 121.8%; the “Procollagen Average” value is given as 63.9* pg/mg of protein; the “Procollagen, individual values” is 59.2 pg/mg of protein and 65.1 pg/mg of protein and 67.2 pg/mg of protein; the “Procollagen Difference (%)” value was 21.8%. Further, in data set [2] (5000 ng/ml), the “Procollagen % DMSO” value is 129.0%; the “Procollagen Average” value is given as 67.7* pg/mg of protein; the “Procollagen, individual values” was 73.8 pg/mg of protein and 64.8 pg/mg of protein and 64.4 pg/mg of protein; the “Procollagen Difference (%)” value is 29.0%. For the same compound, the “increase of the neo synthesis of elastin” value in data set [3] is “+63.7%”.
Compound `COc1cc(/C=C/C(=O)NCCCc2ccccc2)cc(OC)c1OC(C)=O` [Compound 26, 4-acetoxy-3,5-dimethoxy-N-(3-phenylpropyl)-cinnamamide] registered a melting point of 132 °C. Also, in data set [4], the “antioxidant activity in comparison with trolox” value is listed as “slightly higher”.
For `CCCCCCCCCCCCCCCCNC(=O)/C=C/c1cc(OC)c(OC(C)=O)c(OC)c1` [Compound 22], in data set [5] (after 9 days of treatment), the “Glycerol % in comparison with caffeine” value came out at 124%, the “slimming action higher than that of caffeine” value was 24% and the “slimming activity in comparison with caffeine” value is on record as “enhanced slimming activity”. In addition, the “Glycerol Average” value in data set [5] (glycerol released in culture medium after 9 days, 100 μl of 2% product in DMSO in 2 ml medium on J0, J2, J3, J5, J7, 3 explants) is 0.114 mg/mL. In data set [1] (10 ng/ml), the “Progerin % DMSO” value worked out at 75.4%; the “Progerin Average” value was 837.7 ng/mg of protein; the “Progerin, individual values” is 880.7 ng/mg of protein and 801.5 ng/mg of protein and 830.7 ng/mg of protein; the “Progerin Difference (%)” value is on record as −24.6%. Also, in data set [1] (100 ng/ml), the “Progerin % DMSO” value worked out at 52.9%; the “Progerin Average” value was 586.9* ng/mg of protein; the “Progerin, individual values” was 711.0 ng/mg of protein and 548.8 ng/mg of protein and 500.9 ng/mg of protein; the “Progerin Difference (%)” value is on record as −47.1%. Besides, in data set [1] (500 ng/ml), the “Progerin % DMSO” value was 67.8%; the “Progerin Average” value is listed as 752.5 ng/mg of protein; the “Progerin, individual values” is 967.8 ng/mg of protein and 727.4 ng/mg of protein and 562.4 ng/mg of protein; the “Progerin Difference (%)” value is −32.2%. The “neo synthesis of progerin” value in data set [1] is “significantly decrease”. Besides, the “increase of the neo synthesis of elastin” value in data set [3] is given as “+16.7%”.
